Source: US20110280770A1, “Nanogenerator” (priority 2010, published 2011)
Non-standard residues stand in square brackets, D forms with d. Residues, ends and D or L forms follow the SMILES beside them. *: point of attachment. NOTA = O=C(O)CN1CCN(CC(=O)O)CCN(CC(=O)*)CC1

Columns and labels:
[1] = Biodistribution in B16/F1 flank tumor bearing C57 mice; type: in vivo; conditions: both sexes, C57, mouse, tumor (B16/F1 flank tumor), iv, 0.27 mCi, total radioactivity; 40 min post injection; tail vein
Protocol: (§1) Pilot Animal Studies using ^62Cu labeled Peptide: Biodistribution and PET studies of radiolabeled ^62Cu-NOTA-2-GGG-Arg11 were performed in B16/F1 flank tumor bearing C57 mice utilizing the newly designed nanogenerator with the 5 μg lyophilized peptide kits. Fourteen male and female, 6-8 week old mice were injected with B16/F1 cells (1,000,000/mouse) in the flanks or shoulders while anesthetized to induce solid tumors. B16/F1 solid tumors appeared in 14 days post inoculation. Radiolabeled peptides were injected through the tail vein at an average of 0.27 mCi per dose administration for biodistribution studies and an average of 0.7 mCi for imaging, achieving specific activities of 111.2-140.4 Ci/μmol (mean=122.1 Ci/μmol), and an average of 94.0% radiolabeling yield without a purification step after synthesis. Animals in the biodistribution studies were sacrificed by cervical dislocation followed by pneumothorax at 10, 20, and 40 min post administration, major organs removed, weighed, and radioactivity quantitated in a windowed gamma counter.
(§2) Uptake was measured for the tumor, blood, heart, lung, liver, small intestine, intestine, kidneys, muscle, carcass and paper, and skin. Tumor uptake was rapid, reaching 4.65±0.48 ID/g and 9.43±2.69% ID/g at 20 and 40 min post injection, respectively.

B16/F1 flank tumor [2] = assay: as above; type: in vivo; conditions: for Tumor uptake: tail vein
Protocol: as §1, §2

melanoma cells = assay: In vitro cell binding of radiolabeled peptide; type: cell-based; conditions: 1 million cells per well, 320,000 cpm; maximum at 10 min, constant for 50 min
Protocol: Tissue culture wells containing 1 million cells each were incubated with 320,000 cpm of ^62Cu-NOTA-2-GGG-Arg11 for various times between 5 min and 50 min then washed and counted. […] In vitro cell binding of 10% for the ^62Cu-NOTA-2-GGG-Arg11 peptide is similar to then in vitro cell uptake percentages for HPLC purified.

B16/F1 flank tumor [3] = assay: PET imaging study in tumor bearing mice (microPET-Focus); type: in vivo; conditions: static imaging for 20 min starting 10 min post administration
Protocol: as §1, with “Radiolabeled peptides were injected through the tail vein at an average of 0.27 mCi per dose administration for biodistribution studies and an average of 0.7 mCi for imaging, achieving specific activities of 111.2-140.4 Ci/μmol (mean=122.1 Ci/μmol), and an average of 94.0% radiolabeling yield without a purification step after synthesis.” left out
A preliminary PET imaging study was also performed, in which two anesthetized animals were used for PET imaging studies starting at 10 min post administration of the radiolabeled peptide and statically imaged with a microPET-Focus scanner (Siemens Preclinical Solutions, Knoxville, Tenn.) for 20 min (see FIG. 9). […] Background levels of radioactivity in the blood and major organs and tissues were low, except for the kidneys.

melanocortin-1 receptor = molecular target: T1, melanocortin-1 receptor (Mus musculus, UniProt Q01727); conditions: comparison value for the optimal peptide construct for Cu-64; cited from earlier work
T1 construct: endogenous in cells; host or cells: B16/F1 cells
T1 sequence (Q01727 whole entry): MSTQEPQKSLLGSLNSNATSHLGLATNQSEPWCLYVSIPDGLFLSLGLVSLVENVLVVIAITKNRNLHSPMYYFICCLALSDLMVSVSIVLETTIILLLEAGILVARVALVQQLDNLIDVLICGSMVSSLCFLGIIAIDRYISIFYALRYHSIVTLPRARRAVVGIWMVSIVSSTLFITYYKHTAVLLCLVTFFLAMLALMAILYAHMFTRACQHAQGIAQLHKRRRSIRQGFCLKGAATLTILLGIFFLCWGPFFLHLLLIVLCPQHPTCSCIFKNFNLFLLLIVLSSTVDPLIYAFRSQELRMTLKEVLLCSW

Compound | tissue uptake at 40 min [1] | Tumor uptake in the blocked mice relative to radiolabeled peptide alone (B16/F1 flank tumor [2]; 20 min post injection, 20 μg non-labeled NDP-MSH co-injected) | Tumor uptake (B16/F1 flank tumor [2]; 20 min post injection) | Tumor uptake (B16/F1 flank tumor [2]; 40 min post injection) | Clearance and route of excretion (B16/F1 flank tumor [2]; biodistribution at 10, 20 and 40 min) | Maximum cell uptake of the radiolabeled peptide (melanoma cells) | PET tumor visualization (B16/F1 flank tumor [3]) | IC50 (melanocortin-1 receptor)
CC(C)[C@H](NC(=O)[C@@H]1CCCN1C(=O)[C@H](CCCNC(=N)N)NC(=O)[C@H](CS)NC(=O)[C@H](Cc1c[nH]c2ccccc12)NC(=O)[C@H](CCCNC(=N)N)NC(=O)[C@@H](Cc1ccccc1)NC(=O)[C@H](Cc1c[nH]cn1)NC(=O)[C@H](CCC(=O)O)NC(=O)[C@H](CS)NC(=O)[C@H](CS)NC(=O)CNC(=O)CNC(=O)CNC(=O)CN1CCN(CC(=O)O)CCN(CC(=O)O)CC1)C(N)=O [^62Cu-NOTA-2-GGG-Arg11, metal not drawn] ({NOTA}-GGGCCEH[dF]RWCRPV-NH2) | 9.43 ± 2.69 %ID/g | 0.55 % of tumor uptake in the mice receiving the radiolabeled peptide alone | 4.65 ± 0.48 %ID/g | 9.43±2.69 % ID/g | clearance from the blood and non-target tissues except for the kidneys, which was the primary route of excretion | 10% | tumor is clearly visualized | –
CBTE2A-ReCCMSH [CBTE2A conjugated ReCCMSH peptide, the optimal peptide construct for Cu-64] | – | – | – | – | – | – | – | 5.4 nM
